Data taken from patent US20260234173A1, “STRUCTURED MOLECULAR VECTORS FOR ANTI-INFLAMMATORY COMPOUNDS AND USES THEREOF” (Universite Claude Bernard Lyon 1, priority 2019, published 2026).

Test system: hippocampal LTP in rats subjected to Pilo-SE
Assay: Hippocampal LTP in slices from Pilo-SE rats treated in vivo (i.p. or per os)
Design: species or system rat
Conditions: 1 h after cessation of SE then daily
Method: In this experiment we used male Sprague-Dawley rats (ENVIGO, Netherlands). Pups were received at 14 day-old (postnatal day 14 (P14)) with their foster mother, and were maintained in groups of 10 in plastic cages (405 mm×255 mm×197 mm) with free access to food and water. All animal procedures are in accordance with the guidelines of the Animal Care and Use Committee of the University Claude Bernard Lyon 1.
All injected solutions were prepared in sterile saline (0.9% w/v). At weaning (postnatal day 20 (P20)), Sprague-Dawley male rat pups were first injected i.p. with lithium chloride (127 mg/Kg; Sigma-Aldrich), to decrease the dose of pilocarpine needed to trigger Status Epilepticus (SE). Scopolamine methylnitrate (1 mg/Kg; Sigma-Aldrich) was injected s.c. 18 h later, to alleviate peripheral cholinergic adverse side effects. Pilocarpine hydrochloride (25 mg/Kg; Sigma-Aldrich) was injected i.p. 30 min later, to induce SE. […] The rats were placed on a heated pad, under continuous observation, until they recovered from sedation. Following recovery, the rats were returned to the nursing mother until P23. Control rats only received saline injections. All rats were then housed in groups of 10 and weighed daily, during the 5 following days, to control for food intake, and then twice weekly until the end of experiment (three weeks post SE).
At P28-38, Sprague-Dawley rats were anesthetized with isoflurane, the forebrain was removed and placed in ice cold standard artificial cerebrospinal fluid (ACSF), consisting of (in mM): 124 NaCl, 5 KCl, 1.25 Na2HPO4, 2 MgSO4, 2 CaCl2), 26 NaHCO3, supplemented with 10 D-glucose, and bubbled with 95% O2 and 5% CO2. Hippocampal transverse slices were cut into 350 μm thick sections, using a vibratome (Leica VT1000S), and incubated in ACSF at room temperature for at least 1 h, before the transfer to the recording chamber. The ACSF used for perfusion was supplemented with picrotoxin (100 μM; Sigma-Aldrich), to block GABA-A receptors and therefore to facilitate the induction of NMDA receptors-dependent Long-Term Potentiation (LTP). CA1 pyramidal cells were visualized with a Zeiss Axioskop 2, equipped with a X40 objective, using infrared video microscopy and differential interference contrast optics. Whole-cell recordings from pyramidal neurons in the CA1 layer were obtained with patch electrodes, which were filled with a solution containing (in mM): 120 potassium gluconate, 20 KCl, 0.2 EGTA, 2 MgCl2, 10 HEPES, 4 Na2ATP, 0.3 Tris-GTP and 14 mM phosphocreatine (pH 7.3, adjusted with KOH). Drugs were applied in the bath of the hippocampal slices. Electrode resistances ranged from 3-5 MΩ. Series resistance was continually monitored, and experiments were discarded if it changed by >20%.
Capillary glass pipettes filled with ACSF and connected to an Iso-Flex stimulus isolation unit (A.M.P.I.) were placed in stratum radiatum, to evoke excitatory postsynaptic potentials (EPSPs) in CA1 pyramidal neurons. Cells were held at −70 mV to record EPSPs, and the stimulation strength was set to evoke EPSPs between 5-8 mV. LTP was induced by the theta burst pairing (TBP) protocol, which consisted of EPSPs paired with single back-propagating action potentials (b-APs), timed so that the b-AP (~15 ms delay) occurred at the peak of the EPSPs, as measured in the soma. A single burst contained five pairs delivered at 100 Hz and ten bursts were delivered at 5 Hz per sweep. Three sweeps were delivered at 10 s intervals for a total of 30 bursts (150 b-AP-EPSP pairs). The b-APs were elicited by direct somatic current injection (1 ms, 1-2 nA). This induction protocol was always applied within 20 min of achieving whole-cell configuration, to avoid “wash-out” of LTP.

CCC=CCC=CCC=CCC=CCC=CCC=CCCC(=O)NCCP(=O)(O)O [synaptamide phosphonate]
LTP magnitude (EPSP amplitude, % of baseline) (2 mg/kg i.p.): 183.07±9.02%
LTP magnitude (EPSP amplitude, % of baseline) (5 mg/kg i.p.): 162.4±11.9%
LTP magnitude (EPSP amplitude, % of baseline) (10 mg/kg i.p.): 162.78±12.23%
LTP magnitude (EPSP amplitude, % of baseline) (10 mg/kg per os): 110.7±4.7%
LTP magnitude (EPSP amplitude, % of baseline) (30 mg/kg per os): 146.16±10%
LTP magnitude (EPSP amplitude, % of baseline) (100 mg/kg per os): 162.6±9.2%
